Patent US6472213B1, “Shuttle vectors for the introduction of DNA into mycobacteria and utilization of such bacteria as vaccines” (Institut National de la Sante et de la Recherche Medicale …, priority 1994, dated 2002)

Legend:
Type in all cases: cell-based, M. smegmatis, M. bovis BCG, M. tuberculosis
[1] = system: non-transformed control mycobacteria
[2] = system: mycobacteria carrying the plasmid pMR001
[3] = system: pVN2-carrying mycobacteria

For [Cl][Hg][Cl] [HgCl2], the “Phenotypes of resistance to mercury” value [1] was “S”, the “Phenotypes of resistance to mercury” value [2] was “R” and the “Phenotypes of resistance to mercury” value [3] was “R”. For the same compound, the level of resistance [3] was 40 mg/mL.
